# Columns and labels:
# [1] = system: Rat Calvarial Osteoblasts (RCOs); assay: ALP assay (osteoblast differentiation) in rat calvarial osteoblasts; assay type: cell-based
# Description: Sequential digestion was performed to isolate calvarial osteoblast cells from neonatal rat pups. Briefly, calvariae were harvested from ten to twelve 1–2-day old rat pups, cleaned, and subjected to five sequential enzymatic digestions (0.1% dispase and 0.1% collagenase I) of 10–15 min each, followed by culturing of the harvested cells in α-MEM supplemented with 10% FBS [22].
# RCOs were seeded in 24-well plates (1 × 10^4 cells/well), and the cells were treated for 48 h in osteoblast differentiation media (α-MEM supplemented with 10 mM β-glycerophosphate and 50 μg/mL ascorbic acid) with the imidazole group of chemicals (10^−11 M–10^−6 M).
# A total of 2 mg/mL of para-Nitrophenyl phosphate in diethanolamine buffer was used to measure the ALP activity at a 405 nm wavelength.
# C3H10T1/2 cells = assay: Nodule mineralization (Alizarin Red S) in C3H10T1/2 cells; assay type: cell-based, murine; details: 21 days, differentiation medium
# Description: In a different set of experiments, 3 × 10^6 C3H10T1/2 cells were seeded in a 60 mm culture dish. Then, 24 h post-seeding, the vehicle or MTZ treatment was conducted, and the media were changed every alternate day for 21 days using a differentiation medium.
# Cells were fixed with 10% formalin for 15 min and stained with Alizarin Red for 1 h after 21 days of culture. Moreover, 10% cetylpyridinium chloride (Sigma #C0732) was used to quantify mineralized nodules at a 595 nm wavelength.
# [2] = system: trabecular bone of OVX osteopenic rats; assay: OVX osteopenia model, micro-CT of trabecular bone; assay type: in vivo, SD rats; details: 235 mg/kg oral, 3 months
# Description: The 10-month-old (265 ± 20 g) SD rats were ovariectomized (OVX) bilaterally and left for 3 months to develop osteopenia. Ovary-intact sham-operated animals were used as a control. A live animal micro-CT was performed to confirm osteopenia, followed by dividing the animals into 3 groups: Sham + vehicle (water, oral), OVX + vehicle (water, oral), and OVX + MTZ (235 mg/kg, oral). Each group had 9 rats, and treatment were administered for 3 months. Calcein (20 mg/kg, s.c.) was injected twice before sacrificing at 10-day intervals. A SkyScan 1076 μCT scanner (SkyScan, Ltd., Kartuizersweg, Kontich, Belgium) was used to perform a high-resolution μCT for the two-dimensional and three-dimensional assessment of excised bones. The rat bone scanning process used an isotropic voxel pixel size of 18 μm and an X-ray source of 70 kV and […]. Utilizing the SkyScan Nrecon software (Version: 1.7.0.4), cross-sectional reconstruction was performed. In order to examine the trabecular region of the femur and tibia, 100 slices were used to draw the region of interest (ROI), which was limited to the secondary spongiosa region 1.5 mm from the growth plate’s distal border. The primary spongiosa and cortical bone were not included in the ROI. A ROI was drawn on 70 slices of the mid-vertebral region for the L5 vertebral study. The Batman software (Version: 1.16.8.0+), with trabecular (3D) bone analysis programs was used for quantification.
# [3] = system: bone formation in femur metaphysis of OVX rats; assay: OVX osteopenia model, dynamic bone histomorphometry (double calcein labeling); assay type: in vivo, SD rats; details: 235 mg/kg oral, 3 months
# Description: The 10-month-old (265 ± 20 g) SD rats were ovariectomized (OVX) bilaterally and left for 3 months to develop osteopenia. Ovary-intact sham-operated animals were used as a control. A live animal micro-CT was performed to confirm osteopenia, followed by dividing the animals into 3 groups: Sham + vehicle (water, oral), OVX + vehicle (water, oral), and OVX + MTZ (235 mg/kg, oral). Each group had 9 rats, and treatment were administered for 3 months. Calcein (20 mg/kg, s.c.) was injected twice before sacrificing at 10-day intervals.
# Two calcein injections were spaced ten days apart for double calcein labeling to perform dynamic histomorphometric assessments. A previously published protocol was used to calculate the bone formation rate/total bone surface (BFR/BS), mineralizing surface/bone surface (MS/BS), and mineral apposition rate (MAR).
# [4] = femur and tibia metaphyses, OVX rats
# [5] = proximal femur and tibia metaphyses, OVX rats
structure (smiles),measurement,setting,value
Cc1ncc([N+](=O)[O-])n1CCO [Metronidazole],Activity in ALP Assay (Positive/Negative),[1]; 48 h,Positive
same,Effect on ALP activity compared to the control (vehicle),[1]; 48 h,significantly increased
same,EC50,"[1]; Rattus norvegicus, Calvarial osteoblast, 48 h in osteoblast differentiation media",1.2 nM
same,Mineralization,C3H10T1/2 cells,promoted mineralization
same,Trabecular bone parameters at vertebra (L5),"[2]; L5, OVX rats",failed to restore
same,Trabecular number (Tb.N),[2]; [4],significant enhancement
same,Trabecular spacing (Tb.sp),[2]; [4],restored trabecular spacing (Tb.sp) to sham levels
same,Trabecular thickness (Tb.Th),[2]; [4],complete restoration
same,BMD,[2]; [5],significantly increased
same,Bone volume (BV/TV),[2]; [5],significantly increased
same,BFR,[3],reversed all parameters to sham levels
same,MAR,[3],reversed all parameters to sham levels
same,MS/BS,[3],reversed all parameters to sham levels

# Reference: article PMC11274654 (Biomedicines, 2024)
